In patent US20250320190A1, “Novel Inhibitors of Leucine Carboxyl Methyltransferase-1 (LCMT-1) and Methods of Use Thereof” (Temple University-Of The Commonwealth System of Higher …, priority 2024, published 2025):
Converted amounts (≈) assume the structure as drawn.

How the values were obtained:
UM-SCC-49 cells [1] = experiment: Radiosensitization assay (crystal violet); format: cell-based, human; details: irradiated 8 Grays 3 hours after compound, viability after 24 hours, listed as LCMT-li
Description: (§1) MCF7, MDA-MB-231, 501-MEL, Rosi, A549, SCC-15, SCC-25, UM-SCC-12, UM-SCC-14a, UM-SCC-49 and UM-SCC69 cells were seeded in 96-well tissue culture plates as previously described. After 24 hours, the media were changed to media with LCMT-li at various concentrations as described. After 3 hours, cells were irradiated at doses listed in Table 2 with an RS-2000 X-Ray Irradiator (Rad Source Technologies, Buford, Georgia). Radiation doses were based on published radiosensitization studies. After 24 hours cell viability was assessed using crystal violet staining. Briefly, cells were washed with PBS, then stained with crystal violet solution (0.25 g crystal violet in 20% methanol) for 20 minutes with agitation. The wells were washed 6 times with PBS to remove excess crystal violet. Plates were allowed to dry for 48 hours, and then 200 μL methanol was added to each well. The plates were agitated for 20 minutes to dissolve the crystal violet, and absorbance was read at 560 nm. The
(§2) radiosensitization assays were performed twice, each time with eight replicates per condition.

SCC-25 cells [2] = experiment: Radiosensitization assay (crystal violet); format: cell-based, human; details: irradiated 8 Grays 3 hours after compound, viability after 24 hours
Description: as §1, §2

SCC-15 cells = experiment: Radiosensitization assay (crystal violet); format: cell-based, human; details: irradiated 8 Grays 3 hours after compound, viability after 24 hours, listed as LCMT-li
Description: as §1, §2

UM-SCC-12 cells [3] = experiment: Radiosensitization assay (crystal violet); format: cell-based, human; details: irradiated 8 Grays 3 hours after compound, viability after 24 hours
Description: as §1, §2

MDA-MB-231 cells = experiment: Radiosensitization assay (crystal violet); format: cell-based, human; details: 10 Grays, data not shown
Description: as §1, §2

MCF7 cells = experiment: Radiosensitization assay (crystal violet); format: cell-based, human; details: 4 Grays
Description: as §1, §2

A549 cells = experiment: Radiosensitization assay (crystal violet); format: cell-based, human; details: 4 Grays
Description: as §1, §2

Rosi cells = experiment: Radiosensitization assay (crystal violet); format: cell-based, human
Description: as §1, §2

501-MEL cells = experiment: Radiosensitization assay (crystal violet); format: cell-based, human; details: 8 Grays
Description: as §1, §2

UM-SCC-69 cells [4] = experiment: Radiosensitization assay (crystal violet); format: cell-based, human; details: irradiated 8 Grays 3 hours after compound, viability after 24 hours, listed as LCMT-li
Description: as §1, §2

Kinetic solubility = format: physicochemical; details: 2% dimethylsulfoxide/PBS, aqueous buffer, kinetic from dmso stock; read-out: Max. Kinetic Solubility
From the text: (§3) There is no cause for concern at this stage since there are multiple strategies and reagents for enhancing aqueous solubility for animal in vivo studies (Savjani, K. T., A. K. Gajjar and J. K. Savjani, 2012, ISRN Pharm 2012: 195727.). […] While target tissue exposure is dependent on free, unbound fractions in the plasma, plasma protein binding can protect compounds from hepatic metabolism. Thus, in vivo metabolism and excretion are often determined by a balance between these two properties. In vivo half-life is a complicated property impacted upon by multiple factors and is difficult to predict. […] While these numbers are somewhat low for a drug candidate, they are acceptable for proof of concept tool molecules which can be given multiple times per day and at higher doses to saturate metabolism.

Plasma stability = format: in vitro ADME; details: mouse plasma; read-out: Plasma Stability (t1/2)
From the text: as §3

UM-SCC-49 cells [5] = experiment: DDR analysis (activated γ-H2AX flow cytometry); format: cell-based, human; details: LCMT-li alone vs control cells, 24 hours
Description: (§4) Cells were treated with LCMT-li, radiotherapy or both as described for Annexin V assays. After 24 hours, cells were lifted with 0.25% trypsin, 2.21 mM EDTA, stained with Ghost Dye™ 710 and fixed with formaldehyde as described. Cells were washed with PBS with 1% BSA, and permeabilized with PBS with 0.1% Triton X-100 on ice for 10 minutes. Cells were pelleted and washed twice with PBS with 0.02% Triton X-100. Cells were resuspended in PBS with 1% BSA and 0.3% Tween-20, and stained with FITC-anti-activated-γ-H2AX (Biolegend, catalog #613404). Cells were pelleted and washed with PBS with 1% BSA and 0.1% sodium azide. DDR analyses were performed twice with 12 replicates, 104 cells/replicate.

SCC-25 cells [6] = experiment: DDR analysis (activated γ-H2AX flow cytometry); format: cell-based, human; details: LCMT-li alone vs control cells, 24 hours
Description: as §4

UM-SCC-12 cells [7] = experiment: DDR analysis (activated γ-H2AX flow cytometry); format: cell-based, human; details: LCMT-li alone vs control cells, 24 hours
Description: as §4

UM-SCC-14a cells = experiment: DDR analysis (activated γ-H2AX flow cytometry); format: cell-based, human; details: LCMT-li alone vs control cells, 24 hours
Description: as §4

UM-SCC-69 cells [8] = experiment: DDR analysis (activated γ-H2AX flow cytometry); format: cell-based, human
Description: as §4

[9] = Liver microsomal stability; format: in vitro ADME
From the text: as §3

- solubility kinetic (Kinetic solubility): 18.5 µM (≈ 7.82 µg/mL)
- half-life (Plasma stability): > 180 min
- half-life ([9]; human liver microsomes, read-out: Liver Microsomal Stability (t1/2) Human): 31.1 min
- half-life ([9]; mouse liver microsomes, read-out: Liver Microsomal Stability (t1/2) Mouse): 17.3 min
Structure (SMILES): COC(=O)c1c(NC(=O)c2ccccc2C)sc(C(=O)Nc2cccc(C)c2)c1C [Compound 2, methyl 4-methyl-2-[(2-methylbenzoyl)amino]-5-[[(3-methylphenyl)amino]carbonyl]-3-thiophenecarboxylate]
- LCMT-1i radiosensitizing Concentration (UM-SCC-49 cells [1]): 2.5 to 10 µM
- LCMT-1i radiosensitizing Concentration (SCC-25 cells [2]; listed as LCMT-1i): 1.25 µM
- LCMT-1i radiosensitizing Concentration (SCC-25 cells [2]; listed as LCMT-li): 2.5 to 10 µM
- LCMT-1i radiosensitizing Concentration (SCC-15 cells): 2.5 to 10 µM
- LCMT-1i radiosensitizing Concentration (UM-SCC-12 cells [3]): 200 µM
- radiosensitization (MDA-MB-231 cells): did not radiosensitize MDA-MB-231 cells
- radiosensitization (MCF7 cells): did sensitize MCF7 cells to irradiation
- radiosensitization (A549 cells): demonstrated radiosensitization
- radiosensitization (Rosi cells; 8 Grays): demonstrated radiosensitization
- LCMT-1i radiosensitizing Concentration (Rosi cells; irradiated 8 Grays 3 hours after compound, viability after 24 hours): 50 µM
- radiosensitization (501-MEL cells): did radiosensitize these cells
- LCMT-1i radiosensitizing Concentration (UM-SCC-69 cells [4]): 2.5 to 10 µM
- activated γ-H2AX expression (UM-SCC-49 cells [5]): decreased activated γ-H2AX expression
- activated γ-H2AX expression (SCC-25 cells [6]): increased activated γ-H2AX expression
- activated γ-H2AX expression (UM-SCC-12 cells [7]): decreased activated γ-H2AX expression
- activated γ-H2AX expression (UM-SCC-14a cells): decreased activated γ-H2AX expression
- activated γ-H2AX expression (UM-SCC-69 cells [8]; LCMT-li alone vs control cells, 24 hours): decreased activated γ-H2AX expression
- DDR (activated γ-H2AX expression) (UM-SCC-69 cells [8]; in the presence of irradiation): inhibited DDR as evidenced by persistent activated γ-H2AX expression
